{"source": "ChEMBL document CHEMBL3864170", "about": "“Pyrazole Inhibitors of GluN2B NMDA Receptor Subunit” (ACS Med Chem Lett, 2016)", "key": {"[1]": {"target": "hERG (KCNH2) (Homo sapiens, UniProt Q12809)", "sequence (Q12809 whole entry)": "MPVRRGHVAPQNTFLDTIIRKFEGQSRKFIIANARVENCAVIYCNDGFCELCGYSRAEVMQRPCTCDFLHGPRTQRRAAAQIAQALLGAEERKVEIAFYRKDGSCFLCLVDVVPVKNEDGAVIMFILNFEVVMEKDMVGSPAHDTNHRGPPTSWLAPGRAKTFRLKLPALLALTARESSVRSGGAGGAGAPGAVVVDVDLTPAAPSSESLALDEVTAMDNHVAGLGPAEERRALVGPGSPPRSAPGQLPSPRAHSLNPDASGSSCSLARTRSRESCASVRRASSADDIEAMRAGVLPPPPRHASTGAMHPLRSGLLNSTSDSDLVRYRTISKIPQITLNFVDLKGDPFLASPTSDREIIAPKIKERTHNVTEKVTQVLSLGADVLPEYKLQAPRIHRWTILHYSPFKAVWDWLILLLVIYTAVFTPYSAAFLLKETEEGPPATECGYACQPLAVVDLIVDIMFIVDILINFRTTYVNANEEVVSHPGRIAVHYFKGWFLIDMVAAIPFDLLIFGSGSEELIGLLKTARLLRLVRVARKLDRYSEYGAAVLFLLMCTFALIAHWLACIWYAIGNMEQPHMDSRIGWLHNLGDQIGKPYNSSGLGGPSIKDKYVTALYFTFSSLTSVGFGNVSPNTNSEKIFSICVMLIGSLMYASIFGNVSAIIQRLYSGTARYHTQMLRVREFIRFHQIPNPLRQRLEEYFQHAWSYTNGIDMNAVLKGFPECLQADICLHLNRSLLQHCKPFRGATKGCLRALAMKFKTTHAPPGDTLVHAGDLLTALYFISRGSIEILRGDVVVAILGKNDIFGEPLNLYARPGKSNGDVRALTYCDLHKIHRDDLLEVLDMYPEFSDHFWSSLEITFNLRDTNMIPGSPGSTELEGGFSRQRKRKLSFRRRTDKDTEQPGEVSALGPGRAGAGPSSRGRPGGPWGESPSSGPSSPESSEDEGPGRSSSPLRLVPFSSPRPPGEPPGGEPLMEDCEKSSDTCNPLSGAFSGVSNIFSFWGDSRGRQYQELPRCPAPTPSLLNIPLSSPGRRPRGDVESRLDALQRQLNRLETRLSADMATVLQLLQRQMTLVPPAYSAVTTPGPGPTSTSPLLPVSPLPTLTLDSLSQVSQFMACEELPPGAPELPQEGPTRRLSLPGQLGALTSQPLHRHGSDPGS", "test": "Displacement of [3H]-dofetilide from human ERG expressed in HEK293 cell membranes after 90 mins by scintillation counting", "conditions": "membranes of HEK293 cells that express human ERG, probe [3H]-dofetilide"}, "[2]": {"target": "Glutamate receptor ionotropic, NMDA 2B (Rattus norvegicus, UniProt Q00960)", "sequence (Q00960 whole entry)": "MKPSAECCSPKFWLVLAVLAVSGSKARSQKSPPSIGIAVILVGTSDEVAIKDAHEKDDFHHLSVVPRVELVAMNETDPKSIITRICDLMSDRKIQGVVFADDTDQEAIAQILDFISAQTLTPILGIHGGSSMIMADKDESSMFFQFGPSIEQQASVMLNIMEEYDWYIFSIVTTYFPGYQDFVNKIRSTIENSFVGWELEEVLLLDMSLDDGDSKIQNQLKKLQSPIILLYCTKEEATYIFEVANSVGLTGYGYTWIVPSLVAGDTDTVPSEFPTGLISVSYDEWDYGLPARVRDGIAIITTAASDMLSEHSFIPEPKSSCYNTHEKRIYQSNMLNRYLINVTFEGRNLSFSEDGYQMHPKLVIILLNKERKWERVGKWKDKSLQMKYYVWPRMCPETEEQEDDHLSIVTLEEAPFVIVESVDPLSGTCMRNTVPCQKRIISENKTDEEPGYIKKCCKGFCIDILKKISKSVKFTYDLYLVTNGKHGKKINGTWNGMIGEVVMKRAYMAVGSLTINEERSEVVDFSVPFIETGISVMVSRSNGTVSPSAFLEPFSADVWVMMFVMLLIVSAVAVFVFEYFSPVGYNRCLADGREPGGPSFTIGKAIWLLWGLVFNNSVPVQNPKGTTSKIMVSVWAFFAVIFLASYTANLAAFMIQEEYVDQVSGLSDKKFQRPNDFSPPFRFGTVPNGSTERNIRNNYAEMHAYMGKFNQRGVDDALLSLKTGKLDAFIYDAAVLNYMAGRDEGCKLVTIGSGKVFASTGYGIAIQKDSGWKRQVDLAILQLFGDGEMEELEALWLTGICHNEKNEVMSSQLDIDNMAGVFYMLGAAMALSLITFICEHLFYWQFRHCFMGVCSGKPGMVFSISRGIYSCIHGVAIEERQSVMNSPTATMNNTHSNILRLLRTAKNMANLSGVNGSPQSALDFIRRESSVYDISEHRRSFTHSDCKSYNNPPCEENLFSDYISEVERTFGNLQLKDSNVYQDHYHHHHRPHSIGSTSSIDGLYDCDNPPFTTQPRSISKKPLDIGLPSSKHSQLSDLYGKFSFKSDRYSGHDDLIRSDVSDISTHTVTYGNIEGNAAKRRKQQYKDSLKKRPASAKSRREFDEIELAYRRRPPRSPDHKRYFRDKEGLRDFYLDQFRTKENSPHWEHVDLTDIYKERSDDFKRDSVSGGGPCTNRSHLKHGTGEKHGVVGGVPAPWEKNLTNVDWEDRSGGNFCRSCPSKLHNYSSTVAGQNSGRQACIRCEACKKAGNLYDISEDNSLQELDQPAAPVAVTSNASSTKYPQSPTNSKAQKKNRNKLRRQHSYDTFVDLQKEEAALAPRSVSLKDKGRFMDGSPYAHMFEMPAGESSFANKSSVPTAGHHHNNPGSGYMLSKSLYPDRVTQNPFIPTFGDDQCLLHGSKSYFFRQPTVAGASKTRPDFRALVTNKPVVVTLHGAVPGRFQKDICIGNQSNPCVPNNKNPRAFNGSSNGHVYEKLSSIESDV", "test": "Antagonist activity at Wistar rat brain NR2B assessed as inhibition of glutamate/glycine-induced Ca2+ flux measured after 90 secs"}, "[3]": {"test": "Antidepressive activity in po dosed NMRI mouse assessed as reduction in duration of immobility administered 30 mins prior to the test measured on last 4 mins of the 10 mins test by force swim test", "format": "functional, organism-based"}}, "data": [{"smiles": "FC(F)Oc1cc(-c2cnn(Cc3cn[nH]c3)c2)ccc1Cl", "values": [{"measurement": "IC50 at 90 min", "setting": "[1]", "result": 52600, "unit": "nM"}, {"measurement": "IC50", "setting": "[2]", "result": 8.23, "unit": "nM"}]}, {"smiles": "Cn1ccc(Cn2cc(-c3ccc(Cl)c(C(F)(F)F)c3)cn2)n1", "values": [{"measurement": "IC50 at 90 min", "setting": "[1]", "result": 3470, "unit": "nM"}, {"measurement": "IC50", "setting": "[2]", "result": 1010, "unit": "nM"}]}, {"smiles": "Fc1ccc(-c2cnn(Cc3cc[nH]n3)c2)cc1OC(F)F", "values": [{"measurement": "MED", "setting": "[3]", "result": 10, "unit": "mg/kg"}]}, {"smiles": "Cn1ccc(Cn2cc(-c3ccc(Cl)c(OC(F)F)c3)cn2)n1", "values": [{"measurement": "MED", "setting": "[3]", "result": 30, "unit": "mg/kg"}]}]}
